Reference: ChEMBL document CHEMBL4038282 (Eur J Med Chem, 2017)
≈ marks a conversion by molar mass, not a printed value.

Tests used:
MDA-MB-231 [1] = assay: Antiproliferative activity against human MDA-MB-231 cells up to 72 hrs by MTT assay; assay type: functional, cell-based; settings: MDA-MB-231, 72 h
MDA-MB-231 [2] = assay: Potency index, ratio of curcumin IC50 to compound IC50 for human MDA-MB-231 cells; assay type: functional
HCT-116 = assay: Antiproliferative activity against human HCT116 cells up to 72 hrs by MTT assay; assay type: functional, cell-based; settings: HCT-116, 72 h
PC-3 = assay: Antiproliferative activity against human PC3 cells up to 72 hrs by MTT assay; assay type: functional, cell-based; settings: PC-3, 72 h
T47D = assay: Antiproliferative activity against ER/PR positive human T47D cells after 24 hrs by MTT assay; assay type: functional, cell-based
MCF7 = assay: Antiproliferative activity against ER/PR positive human MCF7 cells after 24 hrs by MTT assay; assay type: functional, cell-based; settings: MCF7, 24 h
MDA-MB-453 = assay: Antiproliferative activity against HER2 positive human MDA-MB-453 cells after 24 hrs by MTT assay; assay type: functional, cell-based; settings: MDA-MB-453, 24 h
MDA-MB-157 = assay: Antiproliferative activity against human MDA-MB-157 cells after 24 hrs by MTT assay; assay type: functional, cell-based; settings: MDA-MB-157, 24 h
BT-474 = assay: Antiproliferative activity against HER2 positive human BT474 cells after 24 hrs by MTT assay; assay type: functional, cell-based; settings: BT-474, 24 h
SK-BR-3 = assay: Antiproliferative activity against HER2 positive human SKBR3 cells after 24 hrs by MTT assay; assay type: functional, cell-based; settings: SK-BR-3, 24 h
MDA-MB-468 [3] = assay: Antiproliferative activity against human MDA-MB-468 cells after 24 hrs by MTT assay; assay type: functional, cell-based; settings: MDA-MB-468, 24 h
Hs-578T = assay: Antiproliferative activity against human Hs578T cells after 24 hrs by MTT assay; assay type: functional, cell-based
MDA-MB-468 [4] = assay: Antiproliferative activity against doxorubicin-resistant human MDA-MB-468 cells after 24 hrs by MTT assay; assay type: functional, cell-based; settings: MDA-MB-468, 24 h
Mus musculus [5] = assay: Toxicity in nu/nu mouse assessed as changes in body weight at 100 mg/kg, po administered once daily for 32 days measured every 4 days during compound dosing; assay type: organism-based; settings: in vivo
Mus musculus [6] = assay: Toxicity in nu/nu mouse assessed as effect on food consumption at 100 mg/kg, po administered once daily for 32 days measured during compound dosing; assay type: organism-based; settings: in vivo, 768 h
Mus musculus [7] = assay: Toxicity in nu/nu mouse assessed as behavioral changes at 100 mg/kg, po administered once daily for 32 days measured during compound dosing; assay type: organism-based; settings: in vivo, 768 h
[8] = Solubility of the compound in water after 24 hrs by shake-flask method; assay type: physicochemical
[9] = Solubility of the compound in ethanol after 24 hrs by shake-flask method; assay type: physicochemical; settings: 24 h

Row | IC50 (MDA-MB-231 [1]) [µM] | IC50 (HCT-116) [µM] | IC50 (PC-3) [µM] | IC50 (T47D) [µM] | IC50 (MCF7) [µM] | IC50 (MDA-MB-453) [µM] | IC50 (MDA-MB-157) [µM] | IC50 (BT-474) [µM] | IC50 (SK-BR-3) [µM] | IC50 (MDA-MB-468 [3]) [µM] | IC50 (MDA-MB-468 [4]) [µM] | solubility thermodynamic at 24 h [8] [µg/mL] | solubility [9] [µg/mL] | SMILES | Ratio IC50 (MDA-MB-231 [2]) | IC50 (Hs-578T) [µM] | Activity (Mus musculus [5]) | Activity (Mus musculus [6]) | Activity (Mus musculus [7])
1 | 2.29 | 1.95 | 2.32 |  |  |  |  |  |  |  |  |  |  | COc1ccc(/C=C/C(O)=C/C(=O)/C=C/c2ccc(OC)c(OC(=O)C(C)(CO)CO)c2)cc1O | 2.4 - 12.2 |  |  |  | 
2 | 1.33 |  | 5.22 |  |  |  |  |  |  |  |  |  |  | CC(CO)(CO)C(=O)Oc1ccc(/C=C/C(=O)/C=C(O)/C=C/c2ccc(O)cc2)cc1 | 12 |  |  |  | 
3 | 4.61 | 2.79 | 4.74 |  |  |  |  |  |  |  |  |  |  | COc1ccc(/C=C/C(=O)/C=C(O)/C=C/c2ccc(OC)c(OC(=O)C(C)(CO)CO)c2)cc1OC(=O)C(C)(CO)CO | 3.5 |  |  |  | 
4 | 16.2 | 13.8 | 18.8 | 47.9 | 42.9 | 32.4 | 40.4 | 30.1 | 42.8 | 42.9 | 58.6 | 0.6 (≈ 1.63 µM) | 1860 (≈ 5050 µM) | COc1cc(/C=C/C(=O)CC(=O)/C=C/c2ccc(O)c(OC)c2)ccc1O [CURCUMIN] |  | 55.5 | Non-Toxic | Non-Toxic | Non-Toxic
